In patent US20230330067A1, “NOVEL THIOHYDANTOIN DERIVATIVES AND USES THEREOF” (CELROS BIOTECH, priority 2020, published 2023):

What was measured:
human Nox1 = molecular target: T1, human Nox1 (Homo sapiens, UniProt Q9Y5S8); experiment: Lucigenin chemiluminescence assay, human Nox1; type: biochemical; details: Drosophila membranes expressing hNox1; average of three assays
T1 construct: made in house; host or cells: transgenic Drosophila (UAS-hNox1/UAS-dDuox-RNAi; Da-GAL4/+), membranes from fly homogenate
T1 sequence (Q9Y5S8 1-564): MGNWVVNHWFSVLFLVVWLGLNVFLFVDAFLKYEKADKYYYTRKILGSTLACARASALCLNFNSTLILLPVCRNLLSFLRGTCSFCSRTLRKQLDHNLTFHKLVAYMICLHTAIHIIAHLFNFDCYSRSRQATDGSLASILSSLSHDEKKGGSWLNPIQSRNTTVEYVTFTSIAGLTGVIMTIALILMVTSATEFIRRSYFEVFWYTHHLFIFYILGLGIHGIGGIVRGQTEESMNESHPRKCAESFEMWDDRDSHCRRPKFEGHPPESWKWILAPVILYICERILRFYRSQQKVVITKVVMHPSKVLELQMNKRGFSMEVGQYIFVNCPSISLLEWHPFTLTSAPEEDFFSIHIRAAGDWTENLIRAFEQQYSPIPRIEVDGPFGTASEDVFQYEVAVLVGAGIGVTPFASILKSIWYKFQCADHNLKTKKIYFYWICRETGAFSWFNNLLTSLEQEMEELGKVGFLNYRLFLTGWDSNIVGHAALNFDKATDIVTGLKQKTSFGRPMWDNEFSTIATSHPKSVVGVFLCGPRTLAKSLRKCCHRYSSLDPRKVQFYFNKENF
Text: Human Nox isozymes were provided from transgenic flies expressing human Nox isozymes under the daughterless (Da)-GAL4 promoter. The genotype of each fly line is shown below. • 1) Human Nox1: UAS-hNox1/UAS-dDuox-RNAi; Da-GAL4/+ • 2) Human Nox2: UAS-hNox2/UAS-dDuox-RNAi; Da-GAL4/+ • 3) Human Nox4: UAS-hNox4/UAS-dDuox-RNAi; Da-GAL4/+
Transgenic flies were homogenized with PBS containing protease inhibitors (Aprotinin and Leupeptin) to obtain Drosophila membranes of each Nox isozyme. The membranes were incubated with compounds (100 μM, 10 μM, 1 μM, 0.1 μM, 0.01 μM, 0.001 μM, and 0 μM) for 10 min on a shaker. After that, a mixture of 500 μM NADPH (beta-nicotinamide adenine dinucleotide 2′-phosphate reduced tetrasodium salt hydrate; Sigma-Aldrich) and 400 μM lucigenin (N,N′-dimethyl-9,9′-biacridinium dinitrate; Sigma-Aldrich) in 1X HEPES (4-(2-hydroxyethyl)-1-piperazineethanesulfonic acid) buffer was added to the membrane. Lucigenin chemiluminescence was detected at 1 minute intervals for 10 min using a multimode microplate reader (SpectraMax iD3, Molecular Devices). IC50 values were calculated with Graph-Pad Prism 5 (GraphPad Software).
Lucigenin chemiluminescence assays were performed with Drosophila membranes expressing hNox1, hNox2 and hNox4. The assay was repeated three times and the average of the IC50 values was determined.

Huα-Syn transgenic mice = experiment: Huα-Syn transgenic mice; type: in vivo; details: 10 mg/kg intraperitoneal daily for 3 months
Protocol: In order to evaluate the effect of the compound of Example 1 on Huα-Syn transgenic mice, 6-month-old transgenic mice or wild-type mice were divided into 4 groups. • (1) wild type (WT)+vehicle • (2) transgenic (TG)+vehicle • (3) wild type+compound of Example 1 (10 mg/kg) • (4) transgenic+compound of Example 1 (10 mg/kg)
The compound of Example 1 was dissolved in a vehicle containing 4% DMSO (dimethyl sulfoxide, Sigma-Aldrich) and 96% corn oil (Sigma-Aldrich). Mice were intraperitoneally injected with the compound of Example 1 daily at 10 mg/kg daily for 3 months.
The maximum force of the mouse forelimb was recorded with a grip strength meter. The grip strength of vehicle-treated transgenic mice was reduced compared to wild-type mice of the same age.

[1] = test system: MPTP-induced Parkinson's disease; experiment: MPTP-induced Parkinson's disease model mice; type: in vivo, C57BL/6 male mice
Protocol: In order to evaluate the effect of the compound of Example 1 against MPTP (1-methyl-4-phenyl-1,2,3,6-tetrahydropyridine hydrochloride; Sigma-Aldrich) induced Parkinson's disease, twenty-six C57BL/6 male mice (9 weeks old) were randomly divided into three groups. • (1) saline+vehicle • (2) MPTP+vehicle • (3) MPTP+compound of Example 1 (10 mg/kg) Mice were injected intraperitoneally with MPTP (15 mg/kg) 4 times at 2 hour intervals, whereas control mice were treated with the same volume of saline. The compound of Example 1 was dissolved in a vehicle containing 4% DMSO (dimethyl sulfoxide, Sigma-Aldrich) and 96% corn oil (Sigma-Aldrich). Mice received daily intraperitoneal injections of the compound of Example 1 at 10 mg/kg for 8 days from 1 day prior to MPTP injection. Dopaminergic neurons were detected using an anti-tyrosine hydroxylase antibody (1:2000-4000, abcaom) and microglia were measured using an anti-Ibal antibody (1:1000, Wako). Biotinylated goat anti-rabbit antibody (VECTOR, BA-1000) was used as secondary antibody, and ABC solution (VECTOR, BA-1000) was employed. The immunoreactive regions were then incubated with 3-3′ diaminobenzidine (DAB, Dako) to change the color to brown. Seven days post MPTP injection (one day post the final injection of the compound of Example 1), mice were sacrificed and brains thereof were recovered. The brain was sectioned coronally (thickness of 30 μm) using a cryostat (CM1850, Leica), and stored in anti-freeze solution (30% sucrose, 1% polyvinylpyrrolidone and 30% ethylene glycol in 1X PBS) at -20° C. Six coronal sections from substantia nigra (bregma −2.80 mm to −3.80 mm) and three coronal sections (bregma +0.98 mm to +0.50 mm) were collected every 150 μm, stained, and analyzed using ImagePro plus 7.0 software. Mice were subjected to the rotarod test 3 times (1 day before MPTP injection, Day 3 and Day 6 post MPTP injection) based on 3 trials/day.

CN1C(=S)N(C2CCCCC2)C(=O)/C1=C\c1ccc(N(C)CCO)cc1 [Example 1, (E)-3-cyclohexyl-5-(4-((2-hydroxyethyl)(methyl)amino)benzylidene)-1-methyl-2-thioxoimidazolidin-4-one]
IC50 (human Nox1): 1.45 µM
amount of the phosphor α-synuclein in the hippocampus (HP CA1, HP CA2) (Huα-Syn transgenic mice; compared to vehicle-treated transgenic mice, FIG. 7): reduced the amount of the phosphor α-synuclein
astrocyte pathology (GFAP immunopositive astrocytes) in the prefrontal cortex (Pfcx) (Huα-Syn transgenic mice; FIG. 8): reduced astrocytes in Pfcx
microglia pathology (Iba1 immuno-positive microglia) in hippocampus (HP CA1) (Huα-Syn transgenic mice; FIG. 9): decrease in the number of microglial cells in HP CA1
neuromuscular function (forelimb grip strength) (Huα-Syn transgenic mice; FIG. 10): improved the grip strength
dopaminergic neuron protection (Th+ cells in substantia nigra, Th+ fiber density in striatum) ([1]; 10 mg/kg intraperitoneal daily for 8 days, FIG. 4): protected dopaminergic neurons
pathology of microglia (Iba1+ counts in substantia nigra and striatum) ([1]; 10 mg/kg intraperitoneal daily for 8 days, FIG. 5): improved the pathology of microglia
motor function (rotarod test, retention time on the rod) ([1]; 10 mg/kg intraperitoneal daily, Day 3 and Day 6 post MPTP injection, FIG. 6): improved motor function
